From article PMC4883017 (Molecular pharmaceutics, 2015)

Tests used:
[1] = cited from earlier work
HIV-1ADA [2] = assay: Antiviral activity in vivo, humanized PBL-NSG mouse model of HIV-1 infection; design: species or system hu-PBL NSG mice; settings: three i.v. injections over 15 days, Day 15
HepG2 cells = settings: human, 10 days, 30 μg/mL
HIV-1ADA [3] = assay: Reverse transcriptase inhibition in HIV-1 infected MDM; type: cell-based; settings: total NRTI concentration 4 μg/mL, Day 10
[4] = Pharmacokinetics after i.v. injection; type: in vivo; settings: plasma, Balb/c mice, means ± SD

Cc1cn([C@H]2C[C@H](N=[N+]=[N-])[C@@H](CO)O2)c(=O)[nH]c1=O [AZT, Zidovudine]
Administered drug removed with urine [1]: more than 90%
Reduction of the virus level per lymphocyte (p24/CD45) (HIV-1ADA [2]): three-fold reduction
Drop of the mtDNA amount (HepG2 cells): 60%
10-fold virus inhibition in the infected MDM at fixed concentration (HIV-1ADA [3]): achieved only after the treatment with nanodrugs
AUC 0-τ [4]: 22896 ± 85 ng·h/mL
AUC 0-∞ [4]: 88404 ± 786 ng·h/mL
CL [4]: 3.81 ± 0.17 mL/h
